Reference: ChEMBL document CHEMBL1770058, “MMP-13 selective alpha-sulfone hydroxamates: identification of selective P1' amides” (Bioorg Med Chem Lett, 2011)

Key:
Neutrophil collagenase = Neutrophil collagenase (Homo sapiens, UniProt P22894); assay: Inhibition of human MMP8
Collagenase 3 = Collagenase 3 (Homo sapiens, UniProt P45452); assay: Inhibition of human MMP13
[1] = target: 72 kDa type IV collagenase (Homo sapiens, UniProt P08253); assay: Inhibition of human MMP2
[2] = target: Matrix metalloproteinase-9 (Homo sapiens, UniProt P14780); assay: Inhibition of human MMP9
[3] = Bioavailability in rat; type: ADME, organism-based; conditions: in vivo
[4] = Half life in rat; type: ADME, organism-based; conditions: in vivo
[5] = target: Matrix metalloproteinase-14 (Homo sapiens, UniProt P50281); assay: Inhibition of human MMP14
Interstitial collagenase = target: T1, Interstitial collagenase (Homo sapiens, UniProt P03956); assay: Inhibition of human MMP1
T1 sequence (P03956 whole entry): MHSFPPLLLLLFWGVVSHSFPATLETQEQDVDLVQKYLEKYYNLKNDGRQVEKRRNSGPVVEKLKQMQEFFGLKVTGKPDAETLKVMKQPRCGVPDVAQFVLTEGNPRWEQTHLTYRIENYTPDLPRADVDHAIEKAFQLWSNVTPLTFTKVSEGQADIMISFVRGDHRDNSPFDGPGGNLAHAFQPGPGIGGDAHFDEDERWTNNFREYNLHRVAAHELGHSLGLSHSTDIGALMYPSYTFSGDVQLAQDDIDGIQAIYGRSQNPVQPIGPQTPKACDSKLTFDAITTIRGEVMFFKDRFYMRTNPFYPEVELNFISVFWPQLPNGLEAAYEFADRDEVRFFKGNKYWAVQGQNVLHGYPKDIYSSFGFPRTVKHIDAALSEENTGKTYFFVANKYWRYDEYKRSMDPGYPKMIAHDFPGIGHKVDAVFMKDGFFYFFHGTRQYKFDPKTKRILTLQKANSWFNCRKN

Chain of 72 kDa type IV collagenase (P08253 whole entry): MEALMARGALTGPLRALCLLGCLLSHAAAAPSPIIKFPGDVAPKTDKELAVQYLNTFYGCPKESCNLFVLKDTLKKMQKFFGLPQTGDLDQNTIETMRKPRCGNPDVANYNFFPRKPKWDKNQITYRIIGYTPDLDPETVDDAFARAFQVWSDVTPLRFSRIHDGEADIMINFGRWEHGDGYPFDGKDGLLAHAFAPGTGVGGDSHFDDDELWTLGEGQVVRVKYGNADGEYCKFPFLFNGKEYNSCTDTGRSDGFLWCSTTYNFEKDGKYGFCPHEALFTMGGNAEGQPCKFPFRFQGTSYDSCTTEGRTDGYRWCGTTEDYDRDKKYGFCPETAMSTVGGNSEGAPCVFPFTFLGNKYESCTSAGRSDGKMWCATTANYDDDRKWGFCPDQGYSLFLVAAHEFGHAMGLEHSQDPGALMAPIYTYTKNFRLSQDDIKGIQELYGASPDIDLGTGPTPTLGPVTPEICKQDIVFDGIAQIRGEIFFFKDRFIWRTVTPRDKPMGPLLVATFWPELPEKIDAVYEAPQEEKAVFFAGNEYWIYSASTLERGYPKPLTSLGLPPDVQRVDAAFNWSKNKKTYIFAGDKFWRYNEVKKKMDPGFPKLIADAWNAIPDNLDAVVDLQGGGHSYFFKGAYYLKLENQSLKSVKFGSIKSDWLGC
Chain of Matrix metalloproteinase-9 (P14780 whole entry): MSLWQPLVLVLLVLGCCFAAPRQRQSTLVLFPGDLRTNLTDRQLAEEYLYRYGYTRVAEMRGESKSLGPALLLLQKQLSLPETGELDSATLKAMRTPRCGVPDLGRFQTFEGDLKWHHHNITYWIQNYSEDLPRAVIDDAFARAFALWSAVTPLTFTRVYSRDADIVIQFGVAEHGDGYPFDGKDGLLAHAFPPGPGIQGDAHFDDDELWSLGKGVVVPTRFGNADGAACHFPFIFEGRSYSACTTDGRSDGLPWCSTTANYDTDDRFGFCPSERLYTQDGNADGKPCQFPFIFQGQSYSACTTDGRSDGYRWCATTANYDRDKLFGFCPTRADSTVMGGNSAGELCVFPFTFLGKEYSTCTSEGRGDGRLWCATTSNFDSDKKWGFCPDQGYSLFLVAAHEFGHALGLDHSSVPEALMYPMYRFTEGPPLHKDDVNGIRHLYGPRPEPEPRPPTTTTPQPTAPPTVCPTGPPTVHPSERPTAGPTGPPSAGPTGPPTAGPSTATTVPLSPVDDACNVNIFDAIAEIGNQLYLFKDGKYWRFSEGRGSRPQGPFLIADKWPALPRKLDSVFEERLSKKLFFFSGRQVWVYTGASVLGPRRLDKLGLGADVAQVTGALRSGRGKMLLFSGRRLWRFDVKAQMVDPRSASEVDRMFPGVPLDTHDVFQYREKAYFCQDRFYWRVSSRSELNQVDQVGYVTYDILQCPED
Chain of Neutrophil collagenase (P22894 whole entry): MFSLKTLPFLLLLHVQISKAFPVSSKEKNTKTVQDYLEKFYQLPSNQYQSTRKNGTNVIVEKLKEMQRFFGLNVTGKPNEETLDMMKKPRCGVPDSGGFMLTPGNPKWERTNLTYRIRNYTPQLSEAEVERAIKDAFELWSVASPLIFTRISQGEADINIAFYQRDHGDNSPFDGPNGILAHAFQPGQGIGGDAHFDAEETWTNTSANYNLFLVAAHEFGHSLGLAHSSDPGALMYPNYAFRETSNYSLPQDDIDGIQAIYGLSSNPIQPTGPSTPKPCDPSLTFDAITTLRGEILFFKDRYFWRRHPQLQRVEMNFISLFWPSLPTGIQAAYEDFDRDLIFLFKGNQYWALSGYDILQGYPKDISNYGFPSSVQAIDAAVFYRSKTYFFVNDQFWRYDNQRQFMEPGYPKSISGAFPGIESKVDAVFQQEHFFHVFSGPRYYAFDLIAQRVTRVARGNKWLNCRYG

Row | Structure (SMILES) | IC50 (Neutrophil collagenase) | IC50 (Collagenase 3) | IC50 [1] | IC50 [2] | further results
1 | O=C(NCCCOc1ccc(S(=O)(=O)C2(C(=O)NO)CCOCC2)cc1)C1CCCCC1 | 3100 nM | 8.2 nM |  |  | 
2 | CN(C)c1ccc(C(=O)C2CCN(c3ccc(S(=O)(=O)C4(C(=O)NO)CCOCC4)cc3)CC2)cc1 | > 10000 nM | 8 nM | 4000 nM | > 10000 nM | 
3 | COc1ccc(C(=O)NCCCOc2ccc(S(=O)(=O)C3(C(=O)NO)CCOCC3)cc2)cc1 | 900 nM |  |  |  | bioavailability [3]: 1.5%; half-life [4]: 34.8 min
4 | CN(C)c1ccc(NC(=O)CCCCOc2ccc(S(=O)(=O)C3(C(=O)NO)CCOCC3)cc2)cc1 | 2.6 nM |  |  |  | 
5 | O=C(CCCOc1ccc(S(=O)(=O)C2(C(=O)NO)CCOCC2)cc1)N1CCCCC1 | 800 nM | 1.2 nM | 170 nM | 670 nM | 
6 | CN(C)c1ccc(C(=O)CCCOc2ccc(S(=O)(=O)C3(C(=O)NO)CCOCC3)cc2)cc1 | 170 nM |  |  |  | 
7 | COc1ccc(OCCCCOc2ccc(S(=O)(=O)C3(C(=O)NO)CCOCC3)cc2)cc1 | 67 nM |  |  |  | 
8 | C#CCN1CCC(C(=O)NO)(S(=O)(=O)c2ccc(Sc3ccccc3)cc2)CC1 |  |  |  |  | IC50 [5]: 8 nM; IC50 (Interstitial collagenase): > 5000 nM
9 | CN(C(=O)CCCOc1ccc(S(=O)(=O)C2(C(=O)NO)CCOCC2)cc1)c1ccc(OC(F)(F)F)cc1 | 49 nM | 3.3 nM | 270 nM | 380 nM | 
10 | CN(C)c1ccc(C(=O)NCCCOc2ccc(S(=O)(=O)C3(C(=O)NO)CCOCC3)cc2)cc1 | 1000 nM | 2 nM | 1100 nM |  | 
11 | Cc1ccc(C(=O)NCCCOc2ccc(S(=O)(=O)C3(C(=O)NO)CCOCC3)cc2)c(C)c1 | 700 nM | 8 nM |  |  | 
12 | CN(C)c1ccc(C(=O)CCCCOc2ccc(S(=O)(=O)C3(C(=O)NO)CCOCC3)cc2)cc1 | 140 nM | 0.4 nM | 35 nM | 1100 nM | 
13 | CN(C)c1ccc(NC(=O)CCCOc2ccc(S(=O)(=O)C3(C(=O)NO)CCOCC3)cc2)cc1 | 100 nM |  | 10 nM |  | 
14 | CN(C)c1ccc(C(=O)CCOc2ccc(S(=O)(=O)C3(C(=O)NO)CCOCC3)cc2)cc1 | 120 nM | 0.9 nM | 16 nM |  | 
15 | COc1ccc(NC(=O)CCCOc2ccc(S(=O)(=O)C3(C(=O)NO)CCOCC3)cc2)cc1 | 31 nM | 0.3 nM | 2.5 nM | 23 nM | 
16 | CCCC(C)(C)C(=O)NCCCOc1ccc(S(=O)(=O)C2(C(=O)NO)CCOCC2)cc1 | 1200 nM | 30 nM |  |  | 
17 | O=C(NCCCOc1ccc(S(=O)(=O)C2(C(=O)NO)CCOCC2)cc1)c1ccc(OC(F)(F)F)cc1 | 140 nM | 0.66 nM | 360 nM | 2200 nM | 
18 | O=C(CCCOc1ccc(S(=O)(=O)C2(C(=O)NO)CCOCC2)cc1)Nc1ccc(OC(F)(F)F)cc1 | 6.7 nM |  | 11 nM |  | 
